Bounds are passed on as bounds.

For this assay, the target named is T1, WT human SLACK (Homo sapiens, UniProt Q5JUK3).
T1 construct: host or cells: CHO-K1
T1 sequence (Q5JUK3 1-1235 isoform Q5JUK3-3): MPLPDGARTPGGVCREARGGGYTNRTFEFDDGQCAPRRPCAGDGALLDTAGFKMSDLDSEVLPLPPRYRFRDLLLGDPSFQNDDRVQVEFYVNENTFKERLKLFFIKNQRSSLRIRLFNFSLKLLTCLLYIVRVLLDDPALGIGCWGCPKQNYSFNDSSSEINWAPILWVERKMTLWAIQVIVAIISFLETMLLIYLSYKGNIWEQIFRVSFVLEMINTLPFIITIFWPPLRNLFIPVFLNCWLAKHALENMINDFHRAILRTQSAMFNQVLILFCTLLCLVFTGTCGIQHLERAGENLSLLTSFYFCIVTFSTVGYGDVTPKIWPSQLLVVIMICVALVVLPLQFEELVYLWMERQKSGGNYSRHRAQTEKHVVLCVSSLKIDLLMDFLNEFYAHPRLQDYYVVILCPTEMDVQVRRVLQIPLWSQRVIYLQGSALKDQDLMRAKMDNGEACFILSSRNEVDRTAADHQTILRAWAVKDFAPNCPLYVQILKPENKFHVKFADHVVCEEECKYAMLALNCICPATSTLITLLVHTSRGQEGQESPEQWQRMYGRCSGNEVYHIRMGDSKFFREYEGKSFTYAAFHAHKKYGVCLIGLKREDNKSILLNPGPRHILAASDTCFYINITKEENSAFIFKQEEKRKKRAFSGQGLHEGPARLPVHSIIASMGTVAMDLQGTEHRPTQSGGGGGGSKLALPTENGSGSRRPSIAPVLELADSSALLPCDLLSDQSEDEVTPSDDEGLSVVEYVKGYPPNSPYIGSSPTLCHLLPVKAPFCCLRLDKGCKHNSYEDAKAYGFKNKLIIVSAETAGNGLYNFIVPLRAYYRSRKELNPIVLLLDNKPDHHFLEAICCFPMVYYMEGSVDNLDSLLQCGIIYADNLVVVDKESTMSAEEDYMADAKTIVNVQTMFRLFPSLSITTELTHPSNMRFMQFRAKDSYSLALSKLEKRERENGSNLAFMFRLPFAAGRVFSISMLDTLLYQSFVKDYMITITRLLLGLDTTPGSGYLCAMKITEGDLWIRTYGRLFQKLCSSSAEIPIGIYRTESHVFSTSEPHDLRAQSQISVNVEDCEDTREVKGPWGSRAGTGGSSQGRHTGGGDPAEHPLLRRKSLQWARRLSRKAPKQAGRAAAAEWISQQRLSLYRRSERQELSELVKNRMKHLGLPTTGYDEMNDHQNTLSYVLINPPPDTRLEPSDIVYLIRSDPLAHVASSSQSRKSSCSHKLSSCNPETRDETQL
The assay can be described thus: Whole-cell automated patch clamp (APC) in CHO-K1 cells stably expressing WT human SLACK. Format: cell-based. As to conditions: for IC50 / WT SLACK inhibition, result in words: APC; for IC50: CHO-K1 cells stably expressing WT human SLACK, averages (n ≥ 3); for SLACK Imax: maximum inhibition at 30 µM test compound standardized to VU0606170 (set at 100%), WT human SLACK; for WT SLACK inhibition, result in words: concentrations 0.125 to 30 µM; for Fold less potent than hit 10 (SLACK inhibition): ratio of WT SLACK APC IC50 to hit 10. Here is the method:
Using concentrations ranging from 0.125 to 30 µM in half-log steps, a concentration–response relationship was generated for each new analog using our APC assay in CHO-K1 cells stably expressing WT SLACK. A minimum of three cells, i.e., replicates, were collected per concentration for each analog.
Automated patch clamp recording was performed with a SyncroPatch 768 PE system (Nanion, Munich, Germany) as previously described. Whole-cell recordings were performed at room temperature. Cells were harvested by first washing with PBS without Mg^2+ or Ca^2+ (Gibco, Billings, MT, USA) to remove cell culture medium, followed by dissociation with TryPLE (Gibco, Billings, MT, USA). Cells were then resuspended and diluted to 200,000 cells/mL in external solution. External solution contained 105 mM NaCl, 4 mM KCl, 1 mM MgCl2, 5 mM CaCl2, 10 mM HEPES, 40 mM N-Methyl-D-glucamine chloride, titrated to pH 7.4 with NaOH and osmolarity of 300 mOsm/kg; internal solution contained 70 mM NaCl, 70 mM KF, 10 mM KCl, 5 mM EGTA, 5mM HEPES, titrated to a pH 7.2 with KOH and osmolarity of 295 mOsm/kg.
The APC protocol was set as following: Cells were held at […] −80 mV for 100 ms, then a ramp protocol was performed from −100 mV to 80 mV at 0.4 mV/ms, hold the cell at −80 mV for another 100 ms, then steps were performed at −20 mV, 0 mV, +20 mV, +40 mV, and +60 mV for 100 ms of each step. Whole-cell currents were measured at 0 mV and normalized to current after external buffer addition.
(The patch-clamp technique gives a direct electrical read-out from membranes.)

As a reminder, the IC50 is the concentration that inhibits the measured activity by half. Read a low IC50 as greater potency. Regarding `CC(C)(Oc1ccc(Cl)cc1)C(=O)Nc1cnc(Oc2ccccc2F)nc1` [Analog 10], it took 1.4 µM to reach half-maximal inhibition (IC50).
`CC(C)(Oc1ccc(Cl)cc1)C(=O)Nc1cnc(Oc2ccccc2)nc1` [Analog 15] registered an IC50 of 1.7 µM.
Same read-out and setting: as for `CC(C)(Oc1ccc(Cl)cc1)C(=O)Nc1cnc(Oc2cccc(F)c2)nc1` [Analog 16], the figure is 2.1 µM.
For the molecule `CC(C)(Oc1ccc(Cl)cc1)C(=O)Nc1cnc(Oc2ccc(F)cc2)nc1` [Analog 17], the midpoint of inhibition, the IC50, lay at 1.8 µM and the “SLACK Imax” value came out at 102%.
For `CC(C)(Oc1ccc(Cl)cc1)C(=O)Nc1cnc(Oc2ccccc2Cl)nc1` [Analog 18], in that order: 1.2 µM and 97%.
Take `CC(C)(Oc1ccc(Cl)cc1)C(=O)Nc1cnc(Oc2cccc(Cl)c2)nc1` [Analog 19]: the IC50 turned out to be 1.5 µM.
The same measure, in the same setting: as for `CC(C)(Oc1ccc(Cl)cc1)C(=O)Nc1cnc(Oc2ccc(Cl)cc2)nc1` [Analog 20], the figure is 1.2 µM; as for `Cc1ccccc1Oc1ncc(NC(=O)C(C)(C)Oc2ccc(Cl)cc2)cn1` [Analog 21], 2.9 µM; as for `Cc1cccc(Oc2ncc(NC(=O)C(C)(C)Oc3ccc(Cl)cc3)cn2)c1` [Analog 22], 2.3 µM.
For `Cc1ccc(Oc2ncc(NC(=O)C(C)(C)Oc3ccc(Cl)cc3)cn2)cc1` [Analog 23], the IC50 is 1.7 µM.
Still for that read-out and setting: as for `CC(C)(Oc1ccc(Cl)cc1)C(=O)Nc1cnc(Oc2ccccc2C(F)(F)F)nc1` [Analog 24], the figure is 1.7 µM.
Take `CC(C)(Oc1ccc(Cl)cc1)C(=O)Nc1cnc(Oc2cccc(C(F)(F)F)c2)nc1` [Analog 25]: it took 1.9 µM to reach half-maximal inhibition (IC50) and the “SLACK Imax” value worked out at 101%.
`CC(C)(Oc1ccc(Cl)cc1)C(=O)Nc1cnc(Oc2ccc(C(F)(F)F)cc2)nc1` [Analog 26] displayed an IC50 of 1 µM.
`COc1ccccc1Oc1ncc(NC(=O)C(C)(C)Oc2ccc(Cl)cc2)cn1` [Analog 27]: 1.5 µM corresponded to half-maximal inhibition (IC50) and the “SLACK Imax” value was determined as 101%.
For the molecule `COc1cccc(Oc2ncc(NC(=O)C(C)(C)Oc3ccc(Cl)cc3)cn2)c1` [Analog 28], the IC50 was found to be 2.4 µM and the “SLACK Imax” value is on record as 101%.
For `COc1ccc(Oc2ncc(NC(=O)C(C)(C)Oc3ccc(Cl)cc3)cn2)cc1` [Analog 29], the IC50 was determined as 1.8 µM.
Still for that read-out and setting: the same measure for `CC(C)(Oc1ccc(Cl)cc1)C(=O)Nc1cnc(Oc2ccccc2OC(F)(F)F)nc1` [Analog 30]: 1.4 µM; for `CC(C)(Oc1ccc(Cl)cc1)C(=O)Nc1cnc(Oc2ccc(OC(F)(F)F)cc2)nc1` [Analog 32]: 1.9 µM; for `CC(C)(Oc1ccc(Cl)cc1)C(=O)Nc1cnc(Oc2ccccc2C#N)nc1` [Analog 33]: 0.94 µM.
On to `CC(C)(Oc1ccc(Cl)cc1)C(=O)Nc1cnc(Oc2cccc(C#N)c2)nc1` [Analog 34], for which the IC50 turned out to be 1.7 µM.
Consider `CC(C)(Oc1ccc(Cl)cc1)C(=O)Nc1cnc(Oc2ccc(C#N)cc2)nc1` [Analog 35], for which the IC50 was 1.1 µM.
Still for that read-out and setting: the same measure for `CC(C)(Oc1ccc(Cl)cc1)C(=O)Nc1cnc(Oc2ccc(S(C)(=O)=O)cc2)nc1` [Analog 36]: 1.1 µM.
With `CC(C)(Oc1ccc(Cl)cc1)C(=O)Nc1cnc(Oc2ccc(C(N)=O)cc2)nc1` [Analog 37], the IC50 is more than 10 µM; the “WT SLACK inhibition, result in words” value is listed as “only a weak inhibitor”; the “SLACK Imax” value was 110%.
Consider `CC(C)(Oc1ccc(Cl)cc1)C(=O)Nc1cnc(Oc2ccc(F)cc2F)nc1` [Analog 38], for which the IC50 was determined as 1 µM and the “SLACK Imax” value turned out to be 101%.
Turning to `CC(C)(Oc1ccc(Cl)cc1)C(=O)Nc1cnc(Oc2cc(F)ccc2F)nc1` [Analog 39], the IC50 came to 1.3 µM and the “SLACK Imax” value came out at 101%.
`CC(C)(Oc1ccc(Cl)cc1)C(=O)Nc1cnc(Oc2ccc(F)c(F)c2)nc1` [Analog 41]: inhibition was half-maximal at 1.7 µM (IC50).
The same measure, in the same setting: as for `CC(C)(Oc1ccc(Cl)cc1)C(=O)Nc1cnc(Oc2cc(F)cc(F)c2)nc1` [Analog 42], the figure is 1.4 µM.
As to `CC(C)(Oc1ccc(Cl)cc1)C(=O)Nc1cnc(Oc2c(F)cccc2Cl)nc1` [Analog 43], the IC50 turned out to be 0.58 µM and the “SLACK Imax” value was found to be 91%.
Regarding `CC(C)(Oc1ccccc1)C(=O)Nc1cnc(Oc2ccccc2F)nc1` [Analog 44], the IC50 was more than 10 µM; the “WT SLACK inhibition, result in words” value is recorded as “only weakly active”; the “SLACK Imax” value is listed as 66%.
For `CC(C)(Oc1ccccc1F)C(=O)Nc1cnc(Oc2ccccc2F)nc1` [Analog 45], the IC50 is more than 10 µM; the “WT SLACK inhibition, result in words” value is listed as “only weak inhibitors”; the “SLACK Imax” value amounted to 25%.
In the case of `Cc1ccccc1OC(C)(C)C(=O)Nc1cnc(Oc2ccccc2F)nc1` [Analog 50], half-maximal inhibition (IC50) required 2.9 µM and the “Fold less potent than hit 10 (SLACK inhibition)” value is listed as “approximately 2 fold”.
On to `Cc1cccc(OC(C)(C)C(=O)Nc2cnc(Oc3ccccc3F)nc2)c1` [Analog 51], for which the “WT SLACK inhibition, result in words” value is “inactive up to the top concentration of 30 µM”.
With `Cc1ccc(OC(C)(C)C(=O)Nc2cnc(Oc3ccccc3F)nc2)cc1` [Analog 52], the IC50 worked out at 7.1 µM and the “SLACK Imax” value was 97%.
As for `CC(C)(Oc1ccccc1C(F)(F)F)C(=O)Nc1cnc(Oc2ccccc2F)nc1` [Analog 53], the “WT SLACK inhibition, result in words” value is “inactive up to the top concentration of 30 µM”.
Consider `CC(C)(Oc1cccc(C(F)(F)F)c1)C(=O)Nc1cnc(Oc2ccccc2F)nc1` [Analog 54], for which the concentration for half-maximal inhibition (IC50) came out at 3.7 µM and the “SLACK Imax” value was 99%.
In the case of `CC(C)(Oc1ccc(C(F)(F)F)cc1)C(=O)Nc1cnc(Oc2ccccc2F)nc1` [Analog 55], half-maximal inhibition (IC50) required 2.8 µM, the “SLACK Imax” value is reported as 101% and the “Fold less potent than hit 10 (SLACK inhibition)” value is listed as “approximately 2 fold”.
As to `CC(C)(Oc1ccccc1OC(F)(F)F)C(=O)Nc1cnc(Oc2ccccc2F)nc1` [Analog 56], the “WT SLACK inhibition, result in words” value is “inactive up to the top concentration of 30 µM”.
Take `CC(C)(Oc1cccc(OC(F)(F)F)c1)C(=O)Nc1cnc(Oc2ccccc2F)nc1` [Analog 57]: the IC50 came to 4.6 µM and the “SLACK Imax” value amounted to 98%.
Consider `CC(C)(Oc1ccc(OC(F)(F)F)cc1)C(=O)Nc1cnc(Oc2ccccc2F)nc1` [Analog 58], for which the IC50 is more than 10 µM; the “WT SLACK inhibition, result in words” value is reported as “only weak inhibitors”; the “SLACK Imax” value is 104%.
For `CC(C)(Oc1ccc(C#N)cc1)C(=O)Nc1cnc(Oc2ccccc2F)nc1` [Analog 59], the IC50 is more than 10 µM; the “WT SLACK inhibition, result in words” value is given as “only weak inhibitors”; the “SLACK Imax” value is 109%.
For `CC(C)(Oc1ccc(S(C)(=O)=O)cc1)C(=O)Nc1cnc(Oc2ccccc2F)nc1` [Analog 60], the “WT SLACK inhibition, result in words” value was “inactive up to the top concentration of 30 µM”.
Still for that read-out and setting: as for `CC(C)(Oc1ccc(C(N)=O)cc1)C(=O)Nc1cnc(Oc2ccccc2F)nc1` [Analog 61], the entry is “inactive up to the top concentration of 30 µM”.

The values above are taken from publication PMC11643494, “Structure–Activity Relationship Studies in a Series of 2-Aryloxy-N-(pyrimidin-5-yl)acetamide Inhibitors of SLACK Potassium Channels” (Molecules, 2024).
